From US5817818A, “Androstenones” (Glaxo Wellcome Inc., priority 1996, dated 1998)
pIC50, pKi: −log10 of the molar value. Like-named read-outs stand apart in the source and are kept apart here.

Tests used:
[1] = tested on: bovine adrenal 3β-hydroxy-Δ^5 -steroid dehydrogenase/3-keto-Δ^5 -steroid isomerase (3BHSD); conditions: cited from earlier work
[2] = tested on: porcine granulosa cell 3β-hydroxy-Δ^5 -steroid dehydrogenase/3-keto-Δ^5 -steroid isomerase (3BHSD); conditions: cited from earlier work
[3] = molecular target: T1, human type 2 5α-reductase (Homo sapiens, UniProt P31213); assay: Inhibition of human type 2 steroid 5α-reductase (microsomes; testosterone to DHT conversion); format: biochemical; conditions: 20 min preincubation, pH 6.0, 8 nM testosterone, 20-40 min, 1 mM NADPH; read-out: IC50 Human Type 2 5AR
T1 construct: made in house; host or cells: Sf9 insect cells, recombinant baculovirus; microsomes
T1 sequence (P31213 1-254): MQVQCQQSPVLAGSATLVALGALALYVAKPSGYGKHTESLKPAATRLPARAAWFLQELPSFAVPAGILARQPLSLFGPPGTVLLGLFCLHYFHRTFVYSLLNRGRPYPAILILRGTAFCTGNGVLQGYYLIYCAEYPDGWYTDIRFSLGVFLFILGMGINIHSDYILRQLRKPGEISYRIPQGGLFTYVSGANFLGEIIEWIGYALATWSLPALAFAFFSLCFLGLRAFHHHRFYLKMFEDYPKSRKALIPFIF
Method: (§1) Enzyme activities may be determined using microsomes derived from: 1) prostate tissue from benign prostatic hyperplasia (BPH) patients; 2) recombinant baculovirus infected SF9 cells that express human type 1 5α-reductase; or 3) recombinant baculovirus infected SF9 cells that express human type 2 5α-reductase. Microsomes were prepared by homogenization of the tissue or cells, followed by differential centrifugation of the homogenate. Microsome extracts were incubated with varying concentrations of [1,2,6,7-^3 H]-testosterone, 1 mM NADPH, and varying amounts of the compounds of formula (I,) i.e. a test compound, in buffer containing a NADPH regenerating system capable of maintaining NADPH concentrations for a period of time within the range 0.5-240 minutes. Corresponding incubations were carried out with no test compound as a control study.
(§2) For type 1 IC50 measurements, assay components except testosterone were preincubated for 10 minutes at pH 7.0, and following the addition of 100 nM testosterone the assays were allowed to proceed for 10-120 minutes. For type 2 IC50 measurements, assay components except testosterone were preincubated for 20 minutes at pH 6.0, and following the addition of 8 nM testosterone the assays were allowed to proceed for 20-40 minutes. The percentage of conversion of testosterone to DHT in the presence of test compounds compared to the corresponding conversion in the control study was estimated using high performance liquid chromatography (HPLC) with radiochemical detection.

[4] = molecular target: T2, human type 1 5α-reductase (Homo sapiens, UniProt P18405); assay: Inhibition of human type 1 steroid 5α-reductase (microsomes; testosterone to DHT conversion); format: biochemical
T2 construct: made in house; host or cells: Sf9 insect cells, recombinant baculovirus; microsomes
T2 sequence (P18405 1-259): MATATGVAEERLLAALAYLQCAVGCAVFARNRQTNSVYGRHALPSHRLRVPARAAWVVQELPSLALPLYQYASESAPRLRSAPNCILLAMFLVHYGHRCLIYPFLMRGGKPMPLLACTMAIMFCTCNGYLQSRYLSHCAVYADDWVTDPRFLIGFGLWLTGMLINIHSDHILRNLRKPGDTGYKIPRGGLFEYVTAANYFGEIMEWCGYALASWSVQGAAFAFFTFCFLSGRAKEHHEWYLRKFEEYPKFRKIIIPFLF
Method: as §1, §2

Human Adrenal 3BHSD = molecular target: T3, Human Adrenal 3BHSD (Homo sapiens, UniProt P26439); assay: Inhibition of human adrenal 3β-hydroxy-Δ^5-steroid dehydrogenase/3-keto-Δ^5-steroid isomerase (3BHSD) (microsomes; DHEA to androstenedione conversion); format: biochemical; conditions: 1 mM NAD+, pH 7.5, 1 to 60 minutes
T3 construct: microsomes derived from human adrenal tissues; from tissue; host or cells: human adrenal tissue, microsomes
T3 sequence (P26439 1-372): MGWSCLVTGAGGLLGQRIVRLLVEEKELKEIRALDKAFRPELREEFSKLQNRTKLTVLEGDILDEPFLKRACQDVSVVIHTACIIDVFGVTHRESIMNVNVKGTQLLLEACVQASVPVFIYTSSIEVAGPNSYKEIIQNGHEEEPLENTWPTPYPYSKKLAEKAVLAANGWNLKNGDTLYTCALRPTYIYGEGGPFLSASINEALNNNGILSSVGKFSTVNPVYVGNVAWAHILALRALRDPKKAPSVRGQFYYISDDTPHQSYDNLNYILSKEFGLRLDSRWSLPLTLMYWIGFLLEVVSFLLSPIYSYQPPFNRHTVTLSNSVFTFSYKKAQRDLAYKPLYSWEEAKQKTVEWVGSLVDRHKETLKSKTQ
Method: Enzyme activities are measured using microsomes derived from human adrenal tissues. Microsomes were prepared by homogenization of the tissue followed by differential centrifugation of the homogenate. Microsome extracts were incubated with varying concentrations of dehydroepiandrosterone (DHEA), 1 mM NAD+, and varying amounts of the compounds of Formula (I), i.e. a test compound, in pH 7.5 buffer for a period of time within the range of 1 to 60 minutes. Corresponding incubations were carried out with no test compound as a control study. The percentage of conversion of DHEA to androstenedione in the presence of test compounds compared to the corresponding conversion in the control study was estimated using HPLC with radiochemical detection.

[5] = 10 min preincubation, pH 7.0, 100 nM testosterone, 10-120 min, 1 mM NADPH, read-out: IC50 Human Type 1 5AR

| pIC50 [3] | pIC50 [4, 5] | pKi (Human Adrenal 3BHSD) | Compound | inhibition of bovine adrenal 3BHSD [1] | inhibition of porcine granulosa cell 3BHSD [2] | pIC50 [4] |
| --- | --- | --- | --- | --- | --- | --- |
| – | – | – | CCN(CC)C(=O)[C@H]1CC[C@H]2[C@@H]3CC[C@H]4N(C)C(=O)CC[C@]4(C)[C@H]3CC[C@]12C [Compound 4-MA] | potent inhibition | potent inhibition | – |
| 8.00 to 9.00 | 8.00 to 9.00 | < 6.00 | C[C@H]1C[C@H]2NC(=O)C=C[C@]2(C)[C@H]2CC[C@]3(C)[C@@H](C(=O)Nc4cc(C(F)(F)F)ccc4C(F)(F)F)CC[C@H]3[C@H]12 [Compound 30, 17β-N-(2,5-bis(Trifluoromethyl))phenylcarbamoyl-4-aza-7β-methyl-5α-androst-1-en-3-one] | – | – | – |
| > 9.00 | 5.00 to 8.00 | 5.00 to 8.00 | C[C@]12C=CC(=O)N[C@@H]1CC[C@@H]1[C@@H]2CC[C@]2(C)[C@@H](C(=O)NC3(c4ccc5c(c4)OCO5)CCCCC3)CC[C@@H]12 [Compound 12, 17β-N-1-(3,4-Methylenedioxyphenyl)cyclohexylcarbamoyl-4-aza-5α-androst-1-en-3-one] | – | – | – |
| > 9.00 | 8.00 to 9.00 | < 6.00 | CC(C)(C)c1ccc(C(F)(F)F)cc1NC(=O)[C@H]1CC[C@H]2[C@@H]3CC[C@H]4NC(=O)C=C[C@]4(C)[C@H]3CC[C@]12C [Compound 24, 17β-N-(2-t-Butyl-5-trifluoromethyl)phenylcarbamoyl-4-aza-5α-androst-1-en-3-one] | – | – | – |
| > 9.00 | > 9.00 | < 6.00 | CC1(C)CCC(NC(=O)[C@H]2CC[C@H]3[C@@H]4CC[C@H]5NC(=O)C=C[C@]5(C)[C@H]4CC[C@]23C)(c2ccc(C(C)(C)C)cc2)CC1 [Compound 17, 17β-N-1-(4-t-Butylphenyl)-4,4-dimethylcyclohexylcarbamoyl-4-aza-5α-androst-1-en-3-one] | – | – | – |
| > 9.00 | 8.00 to 9.00 | 5.00 to 8.00 | CC(C)(C)c1ccc(C(C)(C)C)c(NC(=O)[C@H]2CC[C@H]3[C@@H]4CC[C@H]5NC(=O)C=C[C@]5(C)[C@H]4CC[C@]23C)c1 [Compound 27, 17β-N-(2,5-Di-t-butyl)phenylcarbamoyl-4-aza-5α-androst-1-en-3-one] | – | – | – |
| > 9.00 | 8.00 to 9.00 | < 6.00 | CC(C)(C)c1ccc(C2(NC(=O)[C@H]3CC[C@H]4[C@@H]5CC[C@H]6NC(=O)C=C[C@]6(C)[C@H]5CC[C@]34C)CCCC2)cc1 [Compound 4, 17β-N-1-(4-t-Butylphenyl)cyclopentylcarbamoyl-4-aza-5α-androst-1-en-3-one] | – | – | – |
| > 9.00 | 8.00 to 9.00 | < 6.00 | C[C@H]1C[C@H]2NC(=O)C=C[C@]2(C)[C@H]2CC[C@]3(C)[C@@H](C(=O)NC4(c5ccc(Cl)cc5)CCCC4)CC[C@H]3[C@H]12 [Compound 32, 17β-N-1-(4-Chlorophenyl)cyclopentylcarbamoyl-4-aza-7β-methyl-5α-androst-1-en-3-one] | – | – | – |
| > 9.00 | 8.00 to 9.00 | < 6.00 | CC(C)(C)c1ccc(C2(NC(=O)[C@H]3CC[C@H]4[C@@H]5CC[C@H]6NC(=O)C=C[C@]6(C)[C@H]5CC[C@]34C)CCOCC2)cc1 [Compound 14, 17β-N-4-(4-t-Butylphenyl)tetrahydropyranylcarbamoyl-4-aza-5α-androst-1-en-3-one] | – | – | – |
| > 9.00 | 8.00 to 9.00 | < 6.00 | CC(C)(C)c1ccc(C2(NC(=O)[C@H]3CC[C@H]4[C@@H]5CC[C@H]6NC(=O)C=C[C@]6(C)[C@H]5CC[C@]34C)CCC(C(C)(C)C)CC2)cc1 (stereo partly drawn) [Compound 18, 17β-N-1-(4-t-Butylphenyl)-4-t-Butylcyclohexylcarbamoyl-4-aza-5α-androst-1-en-3-one] | – | – | – |
| > 9.00 | 8.00 to 9.00 | < 6.00 | CC(C)(C)c1ccc(C(C)(C)C)c(NC(=O)[C@H]2CC[C@H]3[C@@H]4CC[C@H]5NC(=O)CC[C@]5(C)[C@H]4CC[C@]23C)c1 [Compound 28, 17β-N-(2,5-Di-t-butyl)phenylcarbamoyl-4-aza-5α-androstan-3-one] | – | – | – |
| > 9.00 | 8.00 to 9.00 | < 6.00 | CCC1(CC)CC1(NC(=O)[C@H]1CC[C@H]2[C@@H]3CC[C@H]4NC(=O)C=C[C@]4(C)[C@H]3CC[C@]12C)c1ccc(C(F)(F)F)cc1 (stereo partly drawn) [Compound 16, 17β-N-1-(4-Trifluoromethylphenyl)-2,2-diethylcyclopropylcarbamoyl-4-aza-5α-androst-1-en-3-one] | – | – | – |
| > 9.00 | 8.00 to 9.00 | < 6.00 | CC(C)(C)c1ccc(C(F)(F)F)cc1NC(=O)[C@H]1CC[C@H]2[C@@H]3CC[C@H]4NC(=O)CC[C@]4(C)[C@H]3CC[C@]12C [Compound 25, 17β-N-(2-t-Butyl-5-trifluoromethyl)phenylcarbamoyl-4-aza-5α-androstan-3-one] | – | – | – |

| Compound | pIC50 [3] | pIC50 [4, 5] | pKi (Human Adrenal 3BHSD) | inhibition of bovine adrenal 3BHSD [1] | inhibition of porcine granulosa cell 3BHSD [2] | pIC50 [4] |
| --- | --- | --- | --- | --- | --- | --- |
| C[C@]12C=CC(=O)N[C@@H]1CC[C@@H]1[C@@H]2CC[C@]2(C)[C@@H](C(=O)NC3(c4ccc(Cl)cc4)CCCC3)CC[C@@H]12 [Compound 3, 17β-N-1-(4-chlorophenyl)cyclopentylcarbamoyl-4-aza-5α-androst-1-en-3-one] | > 9.00 | – | < 6.00 | – | – | > 9.00 |
